Here are results for one compound from the NIST ThermoML archive (doi:10.1021/je100990n).

The conditions of this data set: 293.15 K; 101.33 kPa; Liquid; Vibrating wire viscometry.

SMILES strings stand for the structures. Values joined by “and” are separate entries in the source; they are usually repeats but may differ in a detail not shown here. Identical values can stand only once. Numbers after ± are expanded uncertainties.

With `O` [water], the viscosity was 1.002 ± 0.0087 mPa·s and 1.005 ± 0.0087 mPa·s and 0.9992 ± 0.0087 mPa·s.

What is called viscosity is the resistance of a fluid to flow.
